Assay results: US20090093454A1, “Chemical Compounds” (priority 2005, published 2009)
pIC50: −log10 of the molar value.

Tested on: HIV-1
Assay: HIV infectivity assay (Table 2, strain not given)
Assay type: cell-based
Conditions: Human immunodeficiency virus 1, read-out: Activity Level
Method: (§1) Compounds were profiled against two HIV-1 viruses, the M-tropic (CCR5 utilizing) Ba-L strain and the T-tropic (CXCR4 utilizing) IIIB strain. Both viruses were propagated in human peripheral blood lymphocytes. Compounds were tested for there ability to block infection of the HOS cell line (expressing hCXCR4/hCCR5/hCD4/pHIV-LTR-luciferase) by either HIV-1 Ba-L or HIV-1, IIIB. Compound cytotoxicity was also examined in the absence of virus addition.
(§2) HOS cells (expressing hCXCR4/hCCR5/hCD4/pHIV-LTR-luciferase) were harvested and diluted in Dulbeccos modified Eagles media supplemented with 2% FCS and non-essential amino acid to a concentration of 60,000 cells/ml. The cells were plated into 96-well plates (100 ul per well) and the plates were placed in a tissue culture incubator (37° C.; 5% CO2/95% air) for a period of 24 h.
Subsequently, 50 ul of the desired drug solution (4 times the final concentration) was added to each well and the plates were returned to the tissue culture incubator (37° C.; 5% CO2/95% air) for 1 h. Following this incubation 50 ul of diluted virus was added to each well (approximately 2 million RLU per well of virus). The plates were returned to the tissue culture incubator (37° C.; 5% CO2/95% air) and were incubated for a further 96 h.
Following this incubation the endpoint for the virally infected cultures was quantified following addition of Steady-Glo Luciferase assay system reagent (Promega, Madison, Wis.). Cell viability or non-infected cultures was measured using a CellTiter-Glo luminescent cell viability assay system (Promega, Madison, Wis.). All luminescent readouts are performed on a Topcount luminescence detector (Packard, Meridien, Conn.).
as §1, with “Ba-L was” for “Both viruses were”, “either peripheral blood lymphocytes or SupT1/CCR5+/CXCR4+ cells. IIIB was propagated in” for “human”, “their” for “there”
as §2, with “FCS” for “FCS and non-essential amino acid”, “120,000” for “60,000”, “(50 μl” for “(100 ul”, “(370°” for “(37°”
Subsequently, 50 μl of the desired drug solution (2 times the final concentration) was added to each well and the plates were returned to the tissue culture incubator (370° C.; 5% CO2/95% air) for 1 h. Following this incubation, 60 μl of diluted virus (4 times the final concentration) was added to 60 μl of 2× the final desired concentration of the compound and 100 μl of this compound/virus mix was added to each well (approximately 2 million RLU per well of virus). The plates were returned to the tissue culture incubator (370° C.; 5% CO2/95% air) and were incubated for a further 96 h.

SMILES	pIC50
OCCN1CCN(c2cccc3nc(CN4CCC[C@H]5CCc6cccnc6[C@H]54)cn23)CC1 [Example 103, 2-(4-{2-[(4aR,10bS)-3,4,4a,5,6,10b-hexahydro-1,10-phenanthrolin-1(2H)-ylmethyl]imidazo[1,2-a]pyridin-5-yl}-1-piperazinyl)ethanol]	> 7.00
c1cnc2c(c1)CC[C@@H]1CCCN(Cc3cn4c(N5CCC(C6CCNCC6)CC5)cccc4n3)[C@H]21 [Example 76a, (4aR,10bS)-1-{[5-(4,4′-bipiperidin-1-yl)imidazo[1,2-a]pyridin-2-yl]methyl}-1,2,3,4,4a,5,6,10b-octahydro-1,10-phenanthroline]	6.30 to 7.00
CN1CCN(c2cccc3nc(CN4CCC[C@H]5CCc6cccnc6[C@H]54)c(CN4CCCC4)n23)CC1 [Example 58, (4aR,10bS)-1-{[5-(4-methyl-1-piperazinyl)-3-(1-pyrrolidinylmethyl)imidazo[1,2-a]pyridin-2-yl]methyl}-1,2,3,4,4a,5,6,10b-octahydro-1,10-phenanthroline]	> 7.00
c1cnc2c(c1)CC[C@@H]1CCCN(Cc3cn4c(N[C@H]5CCCNC5)cccc4n3)[C@H]21 [Example 112, 2-[(4aR,10bS)-3,4,4a,5,6,10b-hexahydro-1,10-phenanthrolin-1(2H)-ylmethyl]-N-[(3S)-3-piperidinyl]imidazo[1,2-a]pyridin-5-amine]	> 7.00
CN1CCCN(c2cccc3nc(CN4CCC[C@@H]5CCCc6cccnc6[C@H]54)cn23)CC1 (relative stereo) [Example 125, (trans) 1-{[5-(4-methylhexahydro-1H-1,4-diazepin-1-yl)imidazo[1,2-a]pyridin-2-yl]methyl}-2,3,4,4a,5,6,7,11b-octahydro-1H-pyrido[3′,2′:6,7]cyclohepta[1,2-b]pyridine]	6.30 to 7.00
OCCN1CCCN(c2cccc3nc(CN4CCC[C@H]5CCc6cccnc6[C@H]54)cn23)CC1 [Example 108, 2-(4-{2-[(4aR,10bS)-3,4,4a,5,6,10b-hexahydro-1,10-phenanthrolin-1(2H)-ylmethyl]imidazo[1,2-a]pyridin-5-yl}hexahydro-1H-1,4-diazepin-1-yl)ethanol]	> 7.00
NCCCCCn1c(CN2CCC[C@H]3CCc4cccnc4[C@H]32)nc2ccccc21 (racemic) [Example 39, (cis) 5-[2-(3,4,4a,5,6,10b-hexahydro-1,10-phenanthrolin-1(2H)-ylmethyl)-1H-benzimidazol-1-yl]-1-pentanamine]	6.30 to 7.00
CN1CCN(c2cccc3nc(CN4CCC[C@H]5CCc6cccnc6[C@H]54)c(CN4CCCCC4)n23)CC1 [Example 57, (4aR,10bS)-1-{[5-(4-methyl-1-piperazinyl)-3-(1-piperidinylmethyl)imidazo[1,2-a]pyridin-2-yl]methyl}-1,2,3,4,4a,5,6,10b-octahydro-1,10-phenanthroline]	> 7.00
C[C@@H]1CN[C@@H](C)CN1c1cccc2nc(CN3CCC[C@H]4CCc5cccnc5[C@H]43)cn12 [Example 79, (4aR,10bS)-1-({5-[(2R,5S)-2,5-dimethyl-1-piperazinyl]imidazo[1,2-a]pyridin-2-yl}methyl)-1,2,3,4,4a,5,6,10b-octahydro-1,10-phenanthroline]	> 7.00
O=C(CN1CCN(c2cccc3nc(CN4CCC[C@H]5CCc6cccnc6[C@H]54)cn23)CC1)N1CCCC1 [Example 101, (4aR,10bS)-1-[(5-{4-[2-oxo-2-(1-pyrrolidinyl)ethyl]-1-piperazinyl}imidazo[1,2-a]pyridin-2-yl)methyl]-1,2,3,4,4a,5,6,10b-octahydro-1,10-phenanthroline]	> 7.00
CN(C)CCCn1cnc(CN2CCC[C@H]3CCc4cccnc4[C@H]32)c1 [Example 51a, (3-{4-[(4aR,10bS)-3,4,4a,5,6,10b-hexahydro-1,10-phenanthrolin-1(2H)-ylmethyl]-1H-imidazol-1-yl}propyl)dimethylamine]	5.00 to 6.30
c1cnc2c(c1)CC[C@@H]1CCCN(Cc3cn4c(NC[C@@H]5CCCNC5)cccc4n3)[C@H]21 [Example 113, 2-[(4aR,10bS)-3,4,4a,5,6,10b-hexahydro-1,10-phenanthrolin-1(2H)-ylmethyl]-N-[(3R)-3-piperidinylmethyl]imidazo[1,2-a]pyridin-5-amine]	> 7.00
CCN1CCN(c2cccc3nc(CN4CCC[C@H]5CCc6cccnc6[C@H]54)cn23)CC1 [Example 73, (4aR,10bS)-1-{[5-(4-ethyl-1-piperazinyl)imidazo[1,2-a]pyridin-2-yl]methyl}-1,2,3,4,4a,5,6,10b-octahydro-1,10-phenanthroline]	> 7.00
OC1CCN(c2cccc3nc(CN4CCC[C@H]5CCc6cccnc6[C@H]54)cn23)CC1 [Example 69, 1-{2-[(4aR,10bS)-3,4,4a,5,6,10b-hexahydro-1,10-phenanthrolin-1(2H)-ylmethyl]imidazo[1,2-a]pyridin-5-yl}-4-piperidinol]	6.30 to 7.00
c1cnc2c(c1)CC[C@@H]1CCCN(Cc3cn4c(N5CCCNCC5)cccc4n3)[C@H]21 [Example 87, (4aR,10bS)-1-{[5-(hexahydro-1H-1,4-diazepin-1-yl)imidazo[1,2-a]pyridin-2-yl]methyl}-1,2,3,4,4a,5,6,10b-octahydro-1,10-phenanthroline]	> 7.00
NCCCCCn1c(CN2CCC[C@@H]3CCc4cccnc4[C@H]32)nc2ccccc21 (relative stereo) [Example 35, (trans)-5-[2-(3,4,4a,5,6,10b-hexahydro-1,10-phenanthrolin-1(2H)-ylmethyl)-1H-benzimidazol-1-yl]-1-pentanamine]	6.30 to 7.00
c1ccc(N2CCN(c3cccc4nc(CN5CCC[C@H]6CCc7cccnc7[C@H]65)cn34)CC2)nc1 [Example 80, (4aR,10bS)-1-({5-[4-(2-pyridinyl)-1-piperazinyl]imidazo[1,2-a]pyridin-2-yl}methyl)-1,2,3,4,4a,5,6,10b-octahydro-1,10-phenanthroline]	6.30 to 7.00
CN1CCN(Cc2c(CN3CCC[C@H]4CCc5cccnc5[C@H]43)nc3cccc(N4CCN(C)CC4)n23)CC1 [Example 56, (4aR,10bS)-1-({5-(4-methyl-1-piperazinyl)-3-[(4-methyl-1-piperazinyl)methyl]imidazo[1,2-a]pyridin-2-yl}methyl)-1,2,3,4,4a,5,6,10b-octahydro-1,10-phenanthroline]	> 7.00
CN1CCC[C@H](Cn2c(CN3CCC[C@H]4CCc5cccnc5[C@H]43)nc3ccccc32)C1 [Example 66, (4aR,10bS)-1-[(1-{[(3S)-1-methyl-3-piperidinyl]methyl}-1H-benzimidazol-2-yl)methyl]-1,2,3,4,4a,5,6,10b-octahydro-1,10-phenanthroline]	> 7.00
C[C@H]1CCCN1c1cccc2nc(CN3CCC[C@H]4CCc5cccnc5[C@H]43)cn12 [Example 111, (4aR,10bS)-1-({5-[(2S)-2-methyl-1-pyrrolidinyl]imidazo[1,2-a]pyridin-2-yl}methyl)-1,2,3,4,4a,5,6,10b-octahydro-1,10-phenanthroline]	6.30 to 7.00
CN1CCN(c2cccc3nc(CN4CCC[C@H]5CCc6cccnc6[C@H]54)c(CO)n23)CC1 [Example 54, [2-[(4aR,10bS)-3,4,4a,5,6,10b-hexahydro-1,10-phenanthrolin-1(2H)-ylmethyl]-5-(4-methyl-1-piperazinyl)imidazo[1,2-a]pyridin-3-yl]methanol]	> 7.00
c1cnc2c(c1)CC[C@@H]1CCCN(Cc3cn4c(N5CCOCC5)cccc4n3)[C@H]21 (racemic) [Example 52, (cis) 1-{[5-(4-morpholinyl)imidazo[1,2-a]pyridin-2-yl]methyl}-1,2,3,4,4a,5,6,10b-octahydro-1,10-phenanthroline]	5.00 to 6.30
CN1CCN(c2cccc3nc(CN4CCC[C@H]5CCc6cccnc6[C@H]54)n(C)c23)CC1 [Example 134, (4aR,10bS)-1-{[1-methyl-7-(4-methyl-1-piperazinyl)-1H-benzimidazol-2-yl]methyl}-1,2,3,4,4a,5,6,10b-octahydro-1,10-phenanthroline]	> 7.00
